These results are taken from article PMC10822168, “Development of potent isoflavone-based formyl peptide receptor 1 (FPR1) antagonists and their effects in gastric cancer cell models” (European journal of medicinal chemistry, 2023).

What all share (format): cell-based, human
In assay [1] the test system is VEGFA. Kind of assay: ELISA of VEGFA secretion in culture medium of AGS cells. The settings on record: fMLF 10 nM, 48 h. The procedure:
(§1) Secretion of VEGFA and angiopoietin 2 (Ang2) in the culture medium of NCl–N87 and AGS cells was assessed after 48 h of drug treatment using ELISA methods (Fig. 10). […] Once again, the effects were more pronounced in NCl–N87 cells than in AGS, and the effect of 25a was more pronounced as compared to 24a. The co-administration of fMLF (10 nM) partially counteracted the effects.
(§2) Fig. 10. Effect of 24a and 25a on the secretion of VGFA (A) and Ang2 (B) in NCl–N87 and AGS cell lines. The ELISA assays were assessed on cells after 48 h of drug treatment with fMLF (10 nM) and 24a or 25a (1, 5 μM) administrated alone or combining the lowest dose of 24a or 25a with fMLF. The concentration of VEGFA (A) or Ang2 (B) was determined in the medium and normalized for the cell number. The values ± SD, obtained from three independent experiments expressed as pg/mL, were shown in the relative graphs. Statistical analysis was assessed by comparing the values obtained using a single drug treatment to those of corresponding untreated cells and the combined treatments to those of the single treatments. **p < 0.001; ***p < 0.0002; ****p < 0.0001. […]

The next assay concerns VEGFA mRNA. Kind of assay: Real-time PCR of VEGFA mRNA expression in NCl–N87 and AGS cells. The settings on record: 24 h, fMLF 10 nM, antagonists 1 or 2 μM, normalized to GAPDH, untreated = 1. An excerpt:
(§3) It has been reported that FPR1 can exert a tumor suppressor function in human GC by inhibiting angiogenesis and that silencing of the receptor increases the constitutive proangiogenic potential of GC cells. Therefore, we assessed the effect of 24a and 25a on the mRNA expression level and secretion of the proangiogenic factors, the vascular growth factor A (VEGFA), and the angiopoietin 2. […] These effects were more pronounced in NCl–N87 cells and resulted more strongly for 25a than 24a. The values obtained after each treatment were normalized to the expression of GAPDH and compared to the reference value of the two genes in untreated cells, which were set equal to 1 (Fig. 9).
(§4) Fig. 9. Effect of 24a and 25a on mRNA expression of VGFA and ANGPT2 in NCl–N87 and AGS cell lines. Real-time PCR experiments in NCl–N87 and AGS cells with specific primers for VEGFA and ANGPT2 genes. The mRNA expression was normalized on the GAPDH housekeeping gene. Expression analysis was performed after treatment with fMLF (10 nM) and 24a or 25a (1, 2, 5 μM) administrated alone or combining the lowest dose of 24a or 25a with fMLF. All expression values were calculated against the value of untreated PTX-sensitive cells, set equal to 1. Statistical analysis was assessed by comparing the values obtained using single drug treatment to those of corresponding untreated cells and the combined treatments to those of single treatments. The values of untreated PTX-resistant cells were compared with those of untreated PTX-sensitive ones. Data were mean ± SD (n = 3). *p < 0.05, **p < 0.001, ***p < 0.0002, ****p < 0.0001.
(§5) Total RNA was extracted from FPR1 antagonist-treated NCl–N87 and AGS treated cells using the Qiagen RNeasy Mini Kit (Qiagen, Hilden, Germany) following the manufacturer’s instructions. Samples were retro-transcribed using the iScript Advanced cDNA Synthesis Kit (Bio-Rad Laboratories, California, USA). Real-Time-PCRs analyzed cDNA samples for the evaluation of VEGFA and ANGPT2 expression. […] Relative quantification was performed using the ddCT method.

In the next assay the test system is AGS cells. The assay is described as follows: Scratch migration assay in AGS cells. The settings on record: fMLF 10 nM, 24 h incubation. The procedure:
The effect of FPR1 blockade on cell migration was assessed using the scratch assay, an easy and well-developed method to measure cell migration in vitro. […] Conversely, 24a and 25a reduced the migration rate in a dose-dependent manner. The effect was more pronounced in NCl–N87 as compared to AGS cells. […] The effect was FPR1-mediated, as it was counterbalanced by co-administration of the agonist fMLF (10 nM).
Fig. 8. Effect of 24a and 25a on cell migration in NCl–N87 and AGS cell lines. Scratch assay assessed on cells treated with fMLF (10 nM) and 24a or 25a (1, 1.5, 2 μM) administrated alone or combining the lowest dose of 24a or 25a with fMLF. The cells were microscopically analyzed at the time of the scratch (T0) and after 24 h (T1). The relative migration rate was calculated by setting the percentage of migration of the control cells at time T1 equal to 1 and comparing the migration percentage of the cells after each drug treatment to this value. Representative original photographs (panel A) and quantitative analysis (panel B) of the cell-free scratch path ares. […] Statistical analysis was assessed by comparing the values obtained using a single drug treatment to those of corresponding untreated cells and the combined treatments to those of the single treatments, *p < 0.05, **p < 0.001, ****p < 0.0001. […]

The subject of assay [2] is VEGFA. The assay is described as follows: ELISA of VEGFA secretion in culture medium of NCl–N87 cells. To be noted: NCl–N87, fMLF 10 nM, 48 h. The procedure: as §1, §2
Background: An ELISA detects its analyte on a solid surface through an enzyme-linked reagent.

The test system of assay [3] is angiopoietin 2 (Ang2). Kind of assay: ELISA of angiopoietin 2 secretion in culture medium of NCl–N87 cells. The settings on record: NCl–N87, fMLF 10 nM, 48 h. The procedure: as §1, §2
For another assay, the system named is NCl–N87 cells. Kind of assay: Scratch migration assay in NCl–N87 cells. To be noted: NCl–N87, fMLF 10 nM, 24 h incubation. An excerpt:
The results are representative of three independent experiments.

Assay [4] relates to angiopoietin 2 (Ang2). Kind of assay: ELISA of angiopoietin 2 secretion in culture medium of AGS cells. To be noted: fMLF 10 nM, 48 h. The procedure: as §1, §2
The subject of a further assay is ANGPT2 mRNA. The assay is described as follows: Real-time PCR of ANGPT2 mRNA expression in NCl–N87 and AGS cells. To be noted: 24 h, fMLF 10 nM, antagonists 1 or 2 μM, normalized to GAPDH, untreated = 1.
Text: as §3, §4, §5
In general terms: Quantitative PCR measures a nucleic acid by following its amplification.

For “N-formyl-methionyl-leucyl-phenylalanine [fMLF]”, the figures for the “reduction in the secretion of VEGFA” value in the assay with VEGFA [1] and in the assay on VEGFA [2] were around 35% and “approximately 40%”, respectively. For the same substance, the “VEGFA mRNA expression” value in the assay on VEGFA mRNA was “reduced expression”. For the same substance, the “increase in cell mobility” value was 32% with AGS cells and 41% in the assay on NCl–N87 cells. For the same substance, the “reduction in the secretion of Ang2” value was around 22% in the assay on angiopoietin 2 (Ang2) [3] and around 23% in the assay on angiopoietin 2 (Ang2) [4]. In the assay on ANGPT2 mRNA, the “angiopoietin 2 (ANGPT2) mRNA expression” value is reported as “reduced expression”.
